Each compound was assayed against T1, Recombinant (1-346) HPK1 (h) (Homo sapiens, UniProt Q92918) (assay: HPK1 human STE kinase enzymatic radiometric assay). Conditions: read-out: HPK1 IC50 nM Range.
T1 construct: Recombinant (1-346) HPK1 (h) is incubated with 8 mM MOPS pH 7.0
T1 sequence (Q92918 1-346): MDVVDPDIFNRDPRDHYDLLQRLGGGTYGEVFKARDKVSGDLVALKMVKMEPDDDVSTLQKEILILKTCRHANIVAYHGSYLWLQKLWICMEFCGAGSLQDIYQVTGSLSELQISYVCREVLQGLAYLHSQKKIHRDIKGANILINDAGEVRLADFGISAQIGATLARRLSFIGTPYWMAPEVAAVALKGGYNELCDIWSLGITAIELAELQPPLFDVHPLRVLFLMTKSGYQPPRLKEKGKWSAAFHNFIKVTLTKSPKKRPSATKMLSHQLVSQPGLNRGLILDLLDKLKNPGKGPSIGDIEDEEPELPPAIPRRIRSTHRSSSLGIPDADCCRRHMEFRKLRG
Format: biochemical
Description: (a) HPK1 Human STE Kinase Enzymatic Radiometric Assay
A stock solution of 10 mM of test compound is prepared in DMSO. The compound plate was prepared by 3-fold and 9-point serial dilutions. Recombinant (1-346) HPK1 (h) is incubated with 8 mM MOPS pH 7.0, 0.2 mM EDTA, 0.33 mg/mL myelin basic protein, 10 mM MgAcetate and [gamma-33P]-ATP (specific activity and concentration as required). The reaction is initiated by the addition of the Mg/ATP mix. After incubation for 40 minutes at RT, the reaction is stopped by the addition of phosphoric acid to a concentration of 0.5%, 10 μL of the reaction is then spotted onto a P30 filtermat and washed four times for 4 minutes in 0.425% phosphoric acid and once in methanol prior to drying and scintillation counting. For more details of kinase assay protocols, see: Gao, Y. et. al.; Biochem J.451 (2): 313-328, 2013.

`Nc1nc(F)c(-c2ccc(C3CCOCC3)c([C@@H]3CCCN3)c2)nc1-c1cc2c(cc1F)C(=O)NCC2` [Example I-19, (S)-6-(3-amino-5-fluoro-6-(3-(pyrrolidin-2-yl)-4-(tetrahydro-2H-pyran-4-yl)phenyl)pyrazin-2-yl)-7-fluoro-3,4-dihydroisoquinolin-1(2H)-one] and `CN(C)Cc1cc(-c2nc(-c3cc4c(cc3F)C(=O)NCC4)c(N)nc2F)ccc1N1CCOCC1` [Example I-65, 6-(3-amino-6-(3-((dimethylamino)methyl)-4-morpholinophenyl)-5-fluoropyrazin-2-yl)-7-fluoro-3,4-dihydroisoquinolin-1(2H)-one] fall in the same range of IC50: 0.1 to 10 nM for the first, 0.1 to 10 nM for the second.

`Nc1nc(F)c(-c2ccc(N3CCOCC3)cc2)nc1-c1cc2c(cc1F)C(=O)NCC2` [Example I-34, 6-(3-amino-5-fluoro-6-(4-morpholinophenyl)pyrazin-2-yl)-7-fluoro-3,4-dihydroisoquinolin-1(2H)-one] and `CN1CCN(c2ccc(-c3nc(-c4cc5c(cc4F)C(=O)NCC5)c(N)nc3F)cc2)CC1` [Example I-54, 6-(3-amino-5-fluoro-6-(4-(4-methylpiperazin-1-yl)phenyl)pyrazin-2-yl)-7-fluoro-3,4-dihydroisoquinolin-1(2H)-one] fall in the same range of IC50: 0.1 to 10 nM for the first, 0.1 to 10 nM for the second.

`CN1CCN(c2ccc(-c3nc(-c4ccc5c(c4)CCNC5=O)c(N)nc3F)cc2)CC1` [Example I-41, 6-(3-amino-5-fluoro-6-(4-(4-methylpiperazin-1-yl)phenyl)pyrazin-2-yl)-3,4-dihydroisoquinolin-1(2H)-one] and `CCN1CCN(c2ccc(-c3nc(-c4ccc5c(c4)CCNC5=O)c(N)nc3F)cc2)CC1` [Example I-55, 6-(3-amino-6-(4-(4-ethylpiperazin-1-yl)phenyl)-5-fluoropyrazin-2-yl)-3,4-dihydroisoquinolin-1(2H)-one] fall in the same range of IC50: 0.1 to 10 nM for the first, 0.1 to 10 nM for the second.

`Cc1[nH]c(=O)c2ccc(-c3nc(-c4ccc(N5CCN(C(C)C)CC5)cc4)c(F)nc3N)cc2c1Cl` [Example I-43, 6-(3-amino-5-fluoro-6-(4-(4-isopropylpiperazin-1-yl)phenyl)pyrazin-2-yl)-4-chloro-3-methylisoquinolin-1(2H)-one] and `Cc1nc2cc(-c3nc(-c4ccc(N5CCN(C(C)C)CC5)cc4)c(F)nc3N)c(F)cc2c(=O)[nH]1` [Example I-63, 7-(3-amino-5-fluoro-6-(4-(4-isopropylpiperazin-1-yl)phenyl)pyrazin-2-yl)-6-fluoro-2-methylquinazolin-4(3H)-one] fall in the same range of IC50: 0.1 to 10 nM for the first, 0.1 to 10 nM for the second.

First: Nc1nc(F)c(-c2ccc(N3CCN(C4COC4)CC3)cc2)nc1-c1cc2c(cc1F)C(=O)NCC2 [Example I-45, 6-(3-amino-5-fluoro-6-(4-(4-(oxetan-3-yl)piperazin-1-yl)phenyl)pyrazin-2-yl)-7-fluoro-3,4-dihydroisoquinolin-1(2H)-one]
Second: Nc1nc(F)c(-c2ccc(N3CCN(C4COC4)CC3)cc2)nc1-c1ccc2c(c1)CCNC2=O [Example I-46, 6-(3-amino-5-fluoro-6-(4-(4-(oxetan-3-yl)piperazin-1-yl)phenyl)pyrazin-2-yl)-3,4-dihydroisoquinolin-1(2H)-one]
The IC50 of the first is higher: 11 to 100 nM for the first, 0.1 to 10 nM for the second.

`Nc1nc(F)c(-c2ccc(N3CCN(C4CCC4)CC3)cc2)nc1-c1cc(F)c2c(c1)CCNC2=O` [Example I-47, 6-(3-amino-6-(4-(4-cyclobutylpiperazin-1-yl)phenyl)-5-fluoropyrazin-2-yl)-8-fluoro-3,4-dihydroisoquinolin-1(2H)-one] and `Nc1nc(F)c(-c2ccc(N3CCN(C4CCC4)CC3)cc2)nc1-c1ccc2c(c1)CCNC2=O` [Example I-49, 6-(3-amino-6-(4-(4-cyclobutylpiperazin-1-yl)phenyl)-5-fluoropyrazin-2-yl)-3,4-dihydroisoquinolin-1(2H)-one] fall in the same range of IC50: 0.1 to 10 nM for the first, 0.1 to 10 nM for the second.

`CC(C)N1CCN(c2ccc(-c3nc(-c4ccc5c(c4)CCNC5=O)c(N)nc3F)cc2)[C@H](C)C1` [Example I-50, (R)-6-(3-amino-5-fluoro-6-(4-(4-isopropyl-2-methylpiperazin-1-yl)phenyl)pyrazin-2-yl)-3,4-dihydroisoquinolin-1(2H)-one] and `C[C@@H]1CN(C)CCN1c1ccc(-c2nc(-c3ccc4c(c3)CCNC4=O)c(N)nc2F)cc1` [Example I-52, (R)-6-(3-amino-6-(4-(2,4-dimethylpiperazin-1-yl)phenyl)-5-fluoropyrazin-2-yl)-3,4-dihydroisoquinolin-1(2H)-one] fall in the same range of IC50: 0.1 to 10 nM for the first, 0.1 to 10 nM for the second.

`CC(C)N1CCN(c2ccc(-c3nc(-c4cc5c(cc4F)C(=O)NCC5)c(N)nc3F)cc2)[C@H](C)C1` [Example I-51, (R)-6-(3-amino-5-fluoro-6-(4-(4-isopropyl-2-methylpiperazin-1-yl)phenyl)pyrazin-2-yl)-7-fluoro-3,4-dihydroisoquinolin-1(2H)-one] and `C[C@@H]1CN(C)CCN1c1ccc(-c2nc(-c3cc4c(cc3F)C(=O)NCC4)c(N)nc2F)cc1` [Example I-53, (R)-6-(3-amino-6-(4-(2,4-dimethylpiperazin-1-yl)phenyl)-5-fluoropyrazin-2-yl)-7-fluoro-3,4-dihydroisoquinolin-1(2H)-one] fall in the same range of IC50: 0.1 to 10 nM for the first, 0.1 to 10 nM for the second.

`CCN1CCN(c2ccc(-c3nc(-c4cc5c(cc4F)C(=O)NCC5)c(N)nc3F)cc2)CC1` [Example I-56, 6-(3-amino-6-(4-(4-ethylpiperazin-1-yl)phenyl)-5-fluoropyrazin-2-yl)-7-fluoro-3,4-dihydroisoquinolin-1(2H)-one] and `Nc1nc(F)c(-c2ccc(N3CCN(CCCC(F)F)CC3)cc2)nc1-c1cc2c(cc1F)C(=O)NCC2` [Example I-69, 6-(3-amino-6-(4-(4-(4,4-difluorobutyl)piperazin-1-yl)phenyl)-5-fluoropyrazin-2-yl)-7-fluoro-3,4-dihydroisoquinolin-1(2H)-one] fall in the same range of IC50: 0.1 to 10 nM for the first, 0.1 to 10 nM for the second.

`C[C@@H]1CN(c2ccc(-c3nc(-c4ccc5c(c4)CCNC5=O)c(N)nc3F)cc2)C[C@H](C)N1C` [Example I-57, 6-(3-amino-5-fluoro-6-(4-((3R,5S)-3,4,5-trimethylpiperazin-1-yl)phenyl)pyrazin-2-yl)-3,4-dihydroisoquinolin-1(2H)-one] and `C[C@@H]1CN(c2ccc(-c3nc(-c4cc5c(cc4F)C(=O)NCC5)c(N)nc3F)cc2)C[C@H](C)N1C` [Example I-58, 6-(3-amino-5-fluoro-6-(4-((3R,5S)-3,4,5-trimethylpiperazin-1-yl)phenyl)pyrazin-2-yl)-7-fluoro-3,4-dihydroisoquinolin-1(2H)-one] fall in the same range of IC50: 0.1 to 10 nM for the first, 0.1 to 10 nM for the second.

`CN1CC2(CCN(c3ccc(-c4nc(-c5cc6c(cc5F)C(=O)NCC6)c(N)nc4F)cc3)CC2)C1` [Example I-61, 6-(3-amino-5-fluoro-6-(4-(2-methyl-2,7-diazaspiro[3.5]nonan-7-yl)phenyl)pyrazin-2-yl)-7-fluoro-3,4-dihydroisoquinolin-1(2H)-one] and `Nc1nc(F)c(-c2ccc(N3CCN(CCCC(F)F)CC3)cc2)nc1-c1ccc2c(c1)CCNC2=O` [Example I-68, 6-(3-amino-6-(4-(4-(4,4-difluorobutyl)piperazin-1-yl)phenyl)-5-fluoropyrazin-2-yl)-3,4-dihydroisoquinolin-1(2H)-one] fall in the same range of IC50: 0.1 to 10 nM for the first, 0.1 to 10 nM for the second.

`Nc1nc(F)c(-c2ccc(N3CCN(CCCC(F)F)CC3)cc2)nc1-c1ccc2c(=O)[nH]ccc2c1` [Example I-70, 6-(3-amino-6-(4-(4-(4,4-difluorobutyl)piperazin-1-yl)phenyl)-5-fluoropyrazin-2-yl)isoquinolin-1(2H)-one] and `Cc1c[nH]c(=O)c2ccc(-c3nc(-c4ccc(N5CCN(CCCC(F)F)CC5)cc4)c(F)nc3N)cc12` [Example I-73, 6-(3-amino-6-(4-(4-(4,4-difluorobutyl)piperazin-1-yl)phenyl)-5-fluoropyrazin-2-yl)-4-methylisoquinolin-1(2H)-one] fall in the same range of IC50: 0.1 to 10 nM for the first, 0.1 to 10 nM for the second.

`Cc1nc2cc(-c3nc(-c4ccc([C@]56C[C@H]5CN(C)C6)cc4)c(F)nc3N)ccc2c(=O)[nH]1` [Example I-74, 7-(3-amino-5-fluoro-6-(4-((1S,5R)-3-methyl-3-azabicyclo[3.1.0]hexan-1-yl)phenyl)pyrazin-2-yl)-2-methylquinazolin-4(3H)-one] and `Cc1c[nH]c(=O)c2ccc(-c3nc(-c4ccc([C@]56C[C@H]5CN(C)C6)cc4)c(F)nc3N)cc12` [Example I-75, 6-(3-amino-5-fluoro-6-(4-((1S,5R)-3-methyl-3-azabicyclo[3.1.0]hexan-1-yl)phenyl)pyrazin-2-yl)-4-methylisoquinolin-1(2H)-one] fall in the same range of IC50: 11 to 100 nM for the first, 11 to 100 nM for the second.

`Cc1nc2cc(-c3nc(-c4ccc(N5CCN(C6CCC6)CC5)cc4)c(F)nc3N)ccc2c(=O)[nH]1` [Example I-76, 7-(3-amino-6-(4-(4-cyclobutylpiperazin-1-yl)phenyl)-5-fluoropyrazin-2-yl)-2-methylquinazolin-4(3H)-one] and `Cc1nc2cc(-c3nc(-c4ccc(N5CCOCC5)c(CN(C)C)c4)c(F)nc3N)ccc2c(=O)[nH]1` [Example I-77, 7-(3-amino-6-(3-((dimethylamino)methyl)-4-morpholinophenyl)-5-fluoropyrazin-2-yl)-2-methylquinazolin-4(3H)-one] fall in the same range of IC50: 11 to 100 nM for the first, 11 to 100 nM for the second.
